According to PubChem BioAssay (NCI):
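Step 1: Grow cells in 96-well plates. Step 2: Expose to compound for 48 hours at 5 concentrations. Step 3: Interpolate endpoints linearly; if unreached, use highest concentration. TGI denotes the concentration required for complete inhibition of growth.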

How the values were obtained:
Assay in all cases: growth of human tumour cells (NCI), 48 h
[1] = tested on: T-47D breast
[2] = tested on: RXF 393 renal
[3] = tested on: CAKI-1 renal
[4] = tested on: DU-145 prostate
[5] = tested on: NCI/ADR-RES ovarian
[6] = tested on: UACC-257 melanoma
[7] = tested on: MDA-MB-231 breast
[8] = tested on: SK-MEL-28 melanoma
[9] = tested on: SF-295 CNS
[10] = tested on: COLO 205 colon
[11] = tested on: NCI-H522 lung
[12] = tested on: NCI-H23 lung
[13] = tested on: MCF7 breast
[14] = tested on: LOX IMVI melanoma
[15] = tested on: OVCAR-3 ovarian
[16] = tested on: SF-539 CNS
[17] = tested on: ACHN renal
[18] = tested on: BT-549 breast
[19] = tested on: HCT-116 colon
[20] = tested on: A498 renal
[21] = tested on: UACC-62 melanoma
[22] = tested on: SK-MEL-5 melanoma
[23] = tested on: MDA-MB-435
[24] = tested on: SK-MEL-2 melanoma
[25] = tested on: OVCAR-8 ovarian
[26] = tested on: OVCAR-4 ovarian
[27] = tested on: SF-268 CNS
[28] = tested on: HL-60(TB) leukemia
[29] = tested on: A549 NSCLC
[30] = tested on: MALME-3M melanoma
[31] = tested on: HCC-2998 colon
[32] = tested on: UO-31 renal
[33] = tested on: 786-0 renal
[34] = tested on: HOP-92 NSCLC
[35] = tested on: M14 melanoma
[36] = tested on: RPMI-8226 leukemia
[37] = tested on: HOP-62 NSCLC
[38] = tested on: SK-OV-3 ovarian
[39] = tested on: U251 CNS
[40] = tested on: K-562 leukemia
[41] = tested on: SNB-75 CNS
[42] = tested on: HCT-15 colon
[43] = tested on: NCI-H226 lung
[44] = tested on: MDA-N
[45] = tested on: PC-3 prostate
[46] = tested on: TK-10 renal
[47] = tested on: HT29 colon
[48] = tested on: SR leukemia
[49] = tested on: MOLT-4 leukemia
[50] = tested on: SNB-19 CNS
[51] = tested on: CCRF-CEM leukemia
[52] = tested on: SN12C renal
[53] = tested on: NCI-H460 lung
[54] = tested on: OVCAR-5 ovarian
[55] = tested on: EKVX NSCLC
[56] = tested on: SW-620 colon
[57] = tested on: HS 578T breast
[58] = tested on: KM12 colon
[59] = tested on: IGROV1 ovarian

Measured: TGI

c1csc(-c2csc(-c3ccsc3)c2)c1
> 71.4 µM: [13]
98.6 µM: [16]
> 100 µM: all other assays above

O=S(=O)(O)c1cc(O)c2c(O)c(N=Nc3cccc4ccccc34)c(S(=O)(=O)O)cc2c1
not listed: [28] | [31] | [51] | [53]
> 100 µM: all other assays above

CN(CCc1ccc(Cl)c(Cl)c1)CCN(C)CCN1CCCC1
9.88 µM: [35]
26.3 µM: [13] | [20]
8.97 µM: [36]
39.7 µM: [45]
25.7 µM: [53]
10 µM: [24]
43.7 µM: [59]
28.3 µM: [29]
5.04 µM: [6]
26.7 µM: [46]
16 µM: [34]
18.7 µM: [19]
38.5 µM: [43]
26.6 µM: [2]
35.5 µM: [55]
47.2 µM: [17]
12.5 µM: [47]
38.4 µM: [42]
20.9 µM: [11]
20.1 µM: [14] | [49]
5.3 µM: [10]
24.4 µM: [39]
> 72.7 µM: [5]
17.2 µM: [32] | [48]
54.3 µM: [38]
46.3 µM: [57]
14.6 µM: [51]
3.74 µM: [21] | [44]
36.2 µM: [18]
86.4 µM: [4]
21.9 µM: [33]
34.9 µM: [37]
15 µM: [30]
7.75 µM: [22]
43.3 µM: [50] | [54]
31.7 µM: [28]
7.27 µM: [40]
70.4 µM: [15]
23 µM: [7]
38.3 µM: [12]
17.5 µM: [16]
24.8 µM: [58]
40.2 µM: [52]
32.4 µM: [9]
31.5 µM: [41]
32.1 µM: [3]
29.8 µM: [27]
62 µM: [25]
44.6 µM: [1]
31.2 µM: [56]
4.5 µM: [23] | [31]
> 100 µM: [26]
3.34 µM: [8]
